Values of other authors, collected in patent US6306864A, “Atropisomers of 3-aryl-4(3H)-quinazolinones and their use as AMPA-receptor antagonists” (Pfizer Inc., priority 2000, dated 2001).

Legend:
[1] = tested on: global and focal ischemic damage; details: focal and global ischemia models
[2] = tested on: rat global ischemia models

Structure (SMILES) | prevention of global and focal ischemic damage [1] | neuroprotection in rat global ischemia models [2]
NS(=O)(=O)c1cccc2c1c([N+](=O)[O-])cc1[nH]c(=O)c(=O)[nH]c12 [NBQX, 2,3-dihydroxy-6-nitro-7-sulfamoylbenzo[f-]quinoxaline] | effective in preventing global and focal ischemic damage | 
CC1=NN=C(c2ccc(N)cc2)c2cc3c(cc2C1)OCO3 [GKYI 52466] |  | effective neuroprotective agent
